The values below come from US20090298103A1, “Predicting hemostatic risk; dependence on plasma composition” (The University of Vermont and State Agriculture College, priority 2008, published 2009).

A short description of data set [1]: Light scattering measurement of Protein S depolymerization on Ca++ addition. It is filed as physicochemical. The text has this: Open squares: commercial PS and closed squares: in-house PS.
In regards to Protein S (PS) a Tf-based assay for PS in CTI-inhibited recalcified PS deficient plasma was developed. […] Dilutions of a normal plasma pool fall on this curve (open symbols). […] The convergence of plasma dilution data with the purified protein curve lends support of the preservation of natural PS quality in the material we isolate. The rate of depolymerization of Ca^++ free PS upon addition of Ca^++ using light scattering (FIG. 26B) was evaluated.

Data set [2] concerns thrombin formation after resupply. Kind of data set: Synthetic coagulation proteome, resupply response (therapeutic anticoagulation). In kind it is biochemical, human. On the procedure:
(§1) Synthetic Coagulation Model—The procedure used is a modification of Lawson et al. [Lawson, J. H., Kalafatis, M., Stram, S., and Mann, K. G. (1994) J. Biol. Chem. 269, 23357-23366] and van't Veer et al. [van't Veer, C. and Mann, K. G. (1997) J. Biol. Chem. 272, 4367-4377]. Relipidated Tf at 5 pM final concentration was added to a mixture of fII, fV, fVII, fVIIIa, fVIII, fIX, fX, fXI, TFPI, and AT (all at mean physiologic concentrations) (43) in 20 mM HEPES/150 mM NaCl (HBS) with 2 mM CaCl2 containing 2 μM PCPS. Pharmacologic agents were incorporated into the reaction mixture prior to addition of the Tf reagent. Resupply was conducted at 20 min post Tf initiation by the addition of an equal volume of a freshly constituted, Tf free mixture containing procofactors, zymogens and inhibitors in HBS with 2 mM CaCl2 and 2 μM PCPS to an ongoing reaction. Pharmacologic agents were present in the resupply mixture at twice their final concentration.
(§2) Thrombin generation over time was measured in a chromogenic assay using Spectrozyme TH and a THERMOmax microplate reader (Molecular Devices Corp., Menlo Park, Calif.). In experiments assessing the reversible thrombin inhibitor DAPA, rates of thrombin generation were calculated by reference to a standard curve relating thrombin concentration to rates of substrate hydrolysis in the presence of relevant DAPA concentrations.
Therapeutic Anticoagulation—We have previously reported that one outcome in closed model systems of Tf-initiated coagulation is the formation of a relatively stable prothrombin activating potential which responds to the introduction of a new supply of reactants with an immediate burst of thrombin production, i.e., a “resupply response” (see U.S. application Ser. No. 10/507,661). There is shown in FIGS. 32A-D and 33A-D computational (FIGS. 32A,C; FIGS. 33A,C) and representative empirical (FIGS. 32B,D; FIGS. 33B,D) assessments of the efficacy of each anticoagulant in suppressing the resupply response. Computational and empirical time courses of thrombin formation are shown for the final 5 min of the Tf-initiated process and for the resupply phase.

Another data set deals with prothrombin. Kind of data set: Western blot of prothrombin consumption during resupply in the synthetic coagulation proteome. In kind it is biochemical, human. On the procedure: Gel Electrophoresis and Western Blotting—Resupply time course samples were quenched into an equal volume of 50 mM EDTA, 50 μM FPRck in HBS and 4 μl aliquots (potentially containing 100 ng prothrombin) were made 2% in SDS and 2% in β-mercaptoethanol and analyzed by SDS-PAGE. Protein species were separated on 4 to 12% linear gradient gel and transferred to nitrocellulose membranes (Bio-Rad Laboratories Inc., US). FII and its activation products were probed for using a polyclonal burro anti-human prethrombin 1 antibody. Reactive bands were detected using goat anti-equine horseradish peroxidase conjugated IgG (Southern Biotechnology, Birmingham Ala.) with a chemiluminescence reagent (Perkin Elmer, Boston Mass.) and Kodak X-OMat film.
Prothrombin Consumption during Resupply—In FIGS. 32B, 32D and 33D, the estimates of UFH, Fpx and DAPA efficacy potentially represent a combination of 2 modes of anticoagulant action: their relative reactivity toward preformed catalytic complexes and their direct inhibition of thrombin formed during the reaction. […]
In general terms: In western blotting, separated proteins are transferred to a membrane and probed.

The target in data set [3] is thrombin and meizotirombin (mIIa). As to conditions: cited from earlier work.
The test system of data set [4] is Tf-initiated thrombin formation. Kind of data set: Synthetic coagulation proteome, Tf-initiated thrombin generation (prophylactic anticoagulation). In kind it is biochemical, human.
Excerpt: Materials—Human coagulation fVII, fX, fIX, and prothrombin (fII), were isolated from fresh frozen plasma using the methods of Bajaj et al., and were purged of traces of active enzymes. FXI was purified using the monoclonal anti-fXI antibody α-fXI-2. Human fV and AT were isolated from freshly frozen plasma. The following were provided as gifts: recombinant fVIII and recombinant Tf (residues 1-242); recombinant human fVIIa; and recombinant full-length tissue factor pathway inhibitor (TFPI). Corn trypsin inhibitor (CTI) was isolated from popcorn. The preparation of the Tf/lipid reagent was performed. 1,2-Dioleolyl-sn-Glycero-3-Phospho-L-Serine (PS) and 1,2-Dioleoyl-sn-Glycero-3-Phosphocholine (PC) were purchased from Avanti Polar Lipids, Inc (Alabaster, Ala.), and EDTA was purchased from Sigma (St Louis, Mo.). Phospholipid vesicles (PCPS) composed of 75% PC and 25% PS and were prepared.
as §1, §2
Incorporation of Anticoagulants into the Mathematical Model—FIG. 27 presents the sets of equations describing the mechanisms of action of each of the anticoagulants used in this study and FIG. 28 presents the rate constants controlling the identified bimolecular interactions and the dosing ranges recommended for prophylactic and therapeutic applications. Details of modeling the various anticoagulant interactions are described herein and in the Methods section. Prophylactic Anticoagulation—There is shown in FIGS. 30A and 30 C computational assessments and in FIGS. 30B and D empirical assessments of the efficacy of each anticoagulant in suppressing the onset of Tf-initiated thrombin formation. In both empirical and computational studies, a 5 pM Tf reagent stimulus was used and thrombin generation assessed over 20 min. Results are presented that compare thrombin generation in the absence of anticoagulant (♦) to that observed over the range of anticoagulant concentrations that drive the transition from partial to maximum suppression of thrombin formation. […]

The target in the next data set is T1, fVIIa (Homo sapiens, UniProt P08709).
T1 construct: Novo Nordisk (gift)
Kind of data set: Factor VIIa titrations of Tf proteins in the absence of lipid. In kind it is biochemical. As to conditions: in complex with fVIIa, Tf 0.1 nM, no lipid. On the procedure:
FIG. 24 is a graphical view of factor VIIa titrations of recombinant Tf (rTf) 1-263, rTf 1-242 and human placental Tf (all at 0.1 nM) in the absence of lipid.
Reports of physical studies of Tf have made use of SDS-PAGE, amino acid analyses and presumed stoichiometry of binding. In a most recent review, a Tf molecular weight of 47 kDa is cited, introducing a 30% error for any experimental physical parameter regarding Tf and its interactions. Tf proteins are distinguished by functional activities in simple as well as in complex reaction systems (FIGS. 24, 25).

The test system of data set [5] is contact pathway inhibited blood. Kind of data set: Contact pathway inhibited whole blood, Tf-initiated TAT formation. Particulars: increasing concentrations incorporated into blood prior to Tf (5 pM). In kind it is biochemical, human. The text has this: (§3) Whole Blood Model—The protocol used is a modification of Rand et al. [Orfeo, T., Butenas, S., Brummel-Ziedins, K. E., and Mann, K. G. (2005) J. Biol. Chem. 280, 42887-42896; Rand, M. D., Lock, J. B., van't Veer, C., Gaffney, D. P., and Mann, K. G. (1996) Blood 88, 3432-3445]. A healthy donor was recruited, advised according to a protocol approved by the University of Vermont Human Studies Committee and their consent was obtained. […] Blood was drawn by venipuncture and immediately delivered into the reagent-loaded tubes. In general, 2 sets of aliquots of CTI treated blood were initiated with […] Tf reagent. One set was quenched at 1 min intervals while the other was incubated for 20 min. […] This resupply blood contained CTI alone (0.1 mg/ml), CTI+2 uM fondaparinux or CTI+320 nM C921-78. After the experiment, the tubes are centrifuged and the supernatants are aliquoted and analyzed for TAT levels. A subset of tubes containing either Fpx or C921-78 were initiated with 5 pM Tf reagent, quenched at 20 min and analyzed for TAT levels.
(§4) Anticoagulant Efficacy in Whole Blood—To test whether results from the computational and proteome based analyses would extrapolate to a more complex empirical model, the efficacy of anticoagulants in suppressing thrombin generation was addressed in contact pathway inhibited blood in both Tf-initiated and resupply regimens. […]

Data set [6] has the same test system. Kind of data set: Contact pathway inhibited whole blood, resupply. In kind it is biochemical, human. As to conditions: 160 nM C921-78.
Excerpt: as §3, §4

The target of the next data set is fXa (Homo sapiens, UniProt P00742). As to conditions: cited from earlier work.
For a further data set, the target named is fXa in prothrombinase (Homo sapiens, UniProt P00742). Particulars: cited from earlier work.
For another data set, the system named is thrombin generation. Kind of data set: Thrombin generation in reconstituted coagulation platelet proteome. It is filed as biochemical, human. The text has this:
FIG. 25 is a graphical view of thrombin generation in synthetic plasma with platelets (2×10^8/ml). Notice monocyte in situ and monocyte purified.

Where two headings read alike, the source gives them in different places.

Broadly, the Kd is the concentration at which binding is half-saturated.

T1 sequence (P08709 213-466 limits assumed, one chain of several): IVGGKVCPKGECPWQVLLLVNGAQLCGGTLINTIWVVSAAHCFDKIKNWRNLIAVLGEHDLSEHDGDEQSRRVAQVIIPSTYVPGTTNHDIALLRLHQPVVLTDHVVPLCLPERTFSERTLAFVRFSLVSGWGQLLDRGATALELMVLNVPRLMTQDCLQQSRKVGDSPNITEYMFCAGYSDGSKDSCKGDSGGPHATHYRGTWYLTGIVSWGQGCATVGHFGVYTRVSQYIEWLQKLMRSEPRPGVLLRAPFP
T1 sequence (P08709 61-212 partner limits assumed, one chain of several): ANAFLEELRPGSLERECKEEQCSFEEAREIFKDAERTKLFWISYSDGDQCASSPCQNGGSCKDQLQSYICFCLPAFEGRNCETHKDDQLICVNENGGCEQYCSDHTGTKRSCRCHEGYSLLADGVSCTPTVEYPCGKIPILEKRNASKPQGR
Sequence of fXa in prothrombinase (P00742 235-488 limits assumed): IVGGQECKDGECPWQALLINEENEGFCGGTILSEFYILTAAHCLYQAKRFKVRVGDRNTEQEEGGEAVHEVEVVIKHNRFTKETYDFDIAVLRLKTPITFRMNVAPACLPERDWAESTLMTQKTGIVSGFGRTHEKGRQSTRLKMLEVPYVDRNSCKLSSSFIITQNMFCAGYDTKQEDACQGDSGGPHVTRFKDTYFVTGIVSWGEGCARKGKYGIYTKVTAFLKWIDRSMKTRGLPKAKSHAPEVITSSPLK
Sequence of fXa in prothrombinase (P00742 41-179 partner limits assumed): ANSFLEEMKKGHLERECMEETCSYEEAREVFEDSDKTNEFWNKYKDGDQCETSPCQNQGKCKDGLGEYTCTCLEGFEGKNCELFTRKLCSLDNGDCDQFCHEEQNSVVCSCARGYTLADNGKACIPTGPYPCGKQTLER
Sequence of fXa in prothrombinase (P12259 29-737 partner limits assumed): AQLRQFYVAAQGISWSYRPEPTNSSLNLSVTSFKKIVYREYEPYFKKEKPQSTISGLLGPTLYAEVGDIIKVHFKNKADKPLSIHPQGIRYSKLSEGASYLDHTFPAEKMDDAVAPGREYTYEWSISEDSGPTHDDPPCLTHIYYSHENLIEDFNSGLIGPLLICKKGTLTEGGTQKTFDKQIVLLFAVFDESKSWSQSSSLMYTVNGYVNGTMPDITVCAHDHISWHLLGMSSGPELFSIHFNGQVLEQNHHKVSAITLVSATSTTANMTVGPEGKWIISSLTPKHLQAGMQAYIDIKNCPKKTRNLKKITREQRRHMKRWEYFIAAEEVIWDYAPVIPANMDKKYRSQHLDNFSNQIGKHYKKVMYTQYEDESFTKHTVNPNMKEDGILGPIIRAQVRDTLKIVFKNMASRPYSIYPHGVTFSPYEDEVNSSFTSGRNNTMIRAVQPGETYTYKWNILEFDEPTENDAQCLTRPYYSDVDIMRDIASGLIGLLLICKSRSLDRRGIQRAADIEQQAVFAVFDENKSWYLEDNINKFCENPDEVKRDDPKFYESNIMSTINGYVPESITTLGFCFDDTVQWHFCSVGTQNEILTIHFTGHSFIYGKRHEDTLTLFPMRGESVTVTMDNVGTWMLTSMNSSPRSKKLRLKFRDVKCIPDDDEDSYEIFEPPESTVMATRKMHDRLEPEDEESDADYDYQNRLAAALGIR
Sequence of fXa in prothrombinase (P12259 1574-2224 partner limits assumed): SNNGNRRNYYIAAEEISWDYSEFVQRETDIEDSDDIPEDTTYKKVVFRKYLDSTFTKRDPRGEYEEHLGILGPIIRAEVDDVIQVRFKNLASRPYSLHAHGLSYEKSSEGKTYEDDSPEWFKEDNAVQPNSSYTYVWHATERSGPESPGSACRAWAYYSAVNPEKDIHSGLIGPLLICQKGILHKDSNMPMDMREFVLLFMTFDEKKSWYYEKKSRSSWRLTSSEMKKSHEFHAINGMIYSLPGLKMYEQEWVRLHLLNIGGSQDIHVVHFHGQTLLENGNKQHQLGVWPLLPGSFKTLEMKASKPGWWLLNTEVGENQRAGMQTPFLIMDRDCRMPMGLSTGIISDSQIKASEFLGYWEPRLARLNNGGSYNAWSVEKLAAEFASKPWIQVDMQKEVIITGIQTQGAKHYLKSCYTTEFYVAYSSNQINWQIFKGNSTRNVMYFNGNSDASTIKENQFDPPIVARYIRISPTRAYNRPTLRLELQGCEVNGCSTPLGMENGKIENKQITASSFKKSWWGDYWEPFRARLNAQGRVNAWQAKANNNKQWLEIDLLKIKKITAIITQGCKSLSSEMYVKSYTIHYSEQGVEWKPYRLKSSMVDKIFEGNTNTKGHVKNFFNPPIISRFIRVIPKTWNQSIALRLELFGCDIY
Sequence of fXa (P00742 235-488 limits assumed): as the sequence (P00742 235-488 limits assumed) above
Sequence of fXa (P00742 41-179 partner limits assumed): as the sequence (P00742 41-179 partner limits assumed) above

Turning to “PS: purified in-house Protein S preparation”, the “half time of depolymerization of Ca++ free PS upon addition of Ca++” value in data set [1] (25° C.) is “approximately 100 s”.

For the molecule “commercial preparation of PS (ERL): commercial preparation of Protein S (ERL)”, the depolymerization behavior entry in data set [1] (commercial preparation (ERL)) is recorded as “does not show this depolymerization behavior”.

Regarding `CCC1CCN(C(=O)C(CCCNC(=N)N)NS(=O)(=O)c2cccc3c(N(C)C)cccc23)CC1` (stereo not shown) [DAPA, dansylarginine-N-[3-ethyl-1,5-pentanediyl]amide], the “difference in rate or maximum final level of IIa=DAPA between the 2 DAPA concentrations” value in data set [2] (10 μM vs 100 μM DAPA) is reported as “No substantial difference in rate or maximum final level”. Moreover, the “blocking prothrombin consumption in the resupply format” value in the data set on prothrombin (DAPA) was “completely ineffective”. Further, the Kd in data set [3] (thrombin and meizothrombin) is 20 to 40 nM; in [3] (value used in the model (FIG. 27)), 40 nM. Further, the “effect on prothrombin consumption” value in [4] (20 μM DAPA) is on record as “only attenuating the maximum rate of prothrombin consumption”. The total prothrombin consumption in [4] (100 μM DAPA) is approximately 20 nM.

On to “placental Tf: natural human placental tissue factor isolated by monoclonal antibody procedure”, for which, in the data set with fVIIa, the “Kd compared with the recombinant proteins” value is “lower Kd” and the “Vmax compared with the recombinant proteins” value was “higher Vmax”.

For the molecule `N=C(N)NCCCC(NS(=O)(=O)c1ccccc1)C(=O)NCC(=O)NC(CCCNC(=N)N)C(=O)c1nccs1` [C921-78, Benzenesulfonyl-D-Arg-Gly-Arg-ketothiazole], in data set [2] (70 nM C921-78), the maximum thrombin levels is 35 nM and the “time of maximum thrombin level post resupply” value worked out at 4 min. In data set [2] (100 nM C921-78), the maximum thrombin levels is recorded as approximately 25 nM and the “time of maximum thrombin level post resupply” value is 10 min. Further, in [2] (160 nM C921-78), the “delay of thrombin generation” value came to 11 min and the maximum thrombin levels amounted to 14 nM. In addition, in data set [5], the “TAT levels at 20 min” value is on record as “decreases in TAT levels”. Besides, the “prothrombin consumption at 15 min” value with prothrombin (160 nM C921-78, densitometric analyses) is recorded as approximately 10%. In data set [6], the “prothrombin consumption (immunoblots)” value is reported as “minimal”. At fXa, the Kd was approximately 0.014 nM. For the same molecule, at fXa in prothrombinase, the Kd was 0.022 nM. In addition, in data set [4] (1 nM C921-78), the “displacing the onset of thrombin generation” value is “somewhat more effective than computationally predicted”; the “effects on maximum rate and concentrations of IIa” value was “minimal effects”. Also, in data set [4] (10 nM C921-78), the thrombin generation result is reported as “completely suppressed”.

B1: monocyte Tf: tissue factor from THP-1 monocytes after stimulation with LPS (protein, UniProt P13726 33-295, looked up)
Tissue factor: SGTTNTVAAYNLTWKSTNFKTILEWEPKPVNQVYTVQISTKSGDWKSKCFYTTDTECDLTDEIVKDVKQTYLARVFSYPAGNVESTGSAGEPLYENSPEFTPYLETNLGQPTIQSFEQVGTKVNVTVEDERTLVRRNNTFLSLRDVFGKDLIYTLYYWKSSSSGKKTAKTNTNEFLIDVDKGENYCFSVQAVIPSRTVNRKSTDSPVECMGQEKGEFREIFYIIGAVVFVVIILVIILAISLHKCRKAGVGQSWKENSPLNVS
As for B1, the “activity relative to monocyte Tf reconstituted on synthetic membranes” value with thrombin generation is approximately 400 ×.
